Assay results published in article PMC7496508, “Modular Medical Imaging Agents Based on Azide–Alkyne Huisgen Cycloadditions: Synthesis and Pre‐Clinical Evaluation of ^18F‐Labeled PSMA‐Tracers for Prostate Cancer Imaging” (Chemistry (Weinheim an Der Bergstrasse, Germany), 2020).
“And” between values parts separate entries of the source, which are not always exact repeats. Equal values may be shown once.

Experiments:
[1] = distribution coefficient logD, n-octanol/PBS; type: physicochemical
Method: page 19: Figure S3: HPLC purification of [18F]PSMA-MIC02 (A) and after 4 h (B). 5. Distribution coefficient LogD. […] cup. 100 µL of the formulated final solution of [18F]PSMA-MIC01 or [18F]PSMA-MIC02 was added and vortexed for 1 minute and centrifuged for 5 min at […]. The different layers were separated and 100 µL of each layer were measured on a γ-counter. Based on the counts per minute (CPM) of each fraction, the partition coefficient was measured with the following formula: log(CPMoctanol/CPMPBS). The obtained data are as followed. Table S2. Counts per minute (CPM) of the 3 indidicually measured triplicates of [18F]PSMA-MIC01 of n- octanol and PBS. Octanol (CPM) PBS (CPM) BLK (CPM) LogD Mean SD […] No 1.2 2823.43 2715328.33 93.59 -2.99 […] No 2.3 394.49 640463.84 93.59 -3.21 […] No 3.2 3690.69 2357291.58 50.84 -2.81 No 3.3 5848.38 3956671.48 52.31 -2.83 -3.01 0.22 18 (1 picture or pasted object on this page, not shown here)

[2] = test system: LNCaP (PSMA+) xenografts; assay: ex vivo organ distribution, LNCaP xenograft mice; type: in vivo, Balb/c nude mice
Method: All groups were evaluated by visual assessment of the PET image and the percentage injected dose per gram (%ID g^−1).
(§1) The animal experiments were all performed according to the ethical guidelines and approved by the local animal welfare committee of the University of Groningen (IvD number 15166-06-001. All animals were caged separately in individually ventilated cages.
(§2) 7-12 week old immune deficient Balb/c nude mice were inoculated with 200 µL of a 1:1 suspension of medium containing approximately 4 x10^6 LNCaP cells (PSMA positive cells) or 5 x 10^6 PC3 cells (PSMA-negative cells) in RPMI-1640, and Matrigel Basement Membrane Matrix High concentration. The cells were subcutaneously inoculated on the right shoulder.
(§3) After 3 to 5 weeks for LNCaP-xenografts, 2-3 weeks for PC3-xenografts or when a tumor size of 1cm3 was reached, the animals were transported to the PET imaging facility. For the […]
prepared and 100 µL were injected via penile vein injection 30 min prior to the tracer injection. Animals were anesthetized at 5 % isoflurane and maintained under 2 % isoflurane enriched with O2. The dynamic PET scan was started within 5 min after tracer injection with an acquisition time of 90 min. The static scan was performed 60 min after tracer injection with an acquisition time of 30 min.
(§4) 7.2. Organ distribution and Metabolite analysis.
After sacrificing the animals, the organs were dissected and measured in a γ-counter. The obtained CPM’s were normalized to %ID/g (Table shown in main text). […]
(§5) In order to check for the significant differences, we also checked for the Cohen’s d, a measurement to determine the effect size. It is calculated on the following formula:
(§6) Cohen′sD = Mean1− Mean2 . […]

[3] = test system: PC3 (PSMA-) xenografts; assay: PET image quantification of organ distribution (SUVmeanBW), PC3 xenograft mice; type: in vivo, Balb/c nude mice
Method: The in vivo imaging potential of [^18F]PSMA‐MIC01 was evaluated using a murine animal model (see Supporting Information for experimental details).65 This was performed in a procedure that involved the study of the tumor uptake, binding specificity and comparison to [^68Ga]PSMA‐11. Tumor uptake of [^18F]PSMA‐MIC01 was assessed by performing a 90 min dynamic PET scan.
as §1, §2, §3
prepared and 100 µL were injected via penile vein injection 30 min prior to the tracer injection. Animals were anesthetized at 5 % isoflurane and maintained under 2 % isoflurane enriched with O2. The dynamic PET scan was started within 5 min after tracer injection with an acquisition time of 90 min. The static scan was performed 60 min after tracer injection with an acquisition time of 30 min. […]
as §5, §6

[4] = metabolite analysis of plasma and urine by TLC; type: in vivo, Balb/c nude mice; details: PC3- or LNCaP-xenograft animals
From the text: as §4
After sacrificing the animals, the organs were dissected and measured in a γ-counter. The obtained CPM’s were normalized to %ID/g (Table shown in main text). For the metabolite analysis, urine and plasma samples were pipetted onto a TLC plate and run in a solution of 10 % MeCN in H2O and read out in an Amersham Typhoon (GE).Additionally to […]
metabolite analysis of two article, the image quantification based on the standardized different animals bearing a uptake value (SUV ) was performed. The obtained data PC3- or a LNCaP-xenograft. meanBW While in Plasma, no are represented in the following Table S6. Here, we show the metabolite were formed, the […]
results obtained by image quantification of the 4 different conclusive. groups. Comparison of tumor uptake in PSMA-expressing
LNCaP xenografts of (1) [68Ga]PSMA-11 and (2) [18F]PSMA-MIC01 (the same animals). (3) the PSMA-negative PC3 xenograft. (4) Confirmation of binding specificity of radiotracer [18F]PSMA-MIC01, by blocking PSMA in LNCaP-xenografts prior to radiotracer injection] using the potent PSMA-inhibitor 2-PMPA.
as §5, §6
(1 picture or pasted object on this page, not shown here)

[5] = LNCaP (PSMA+) xenograft blocked with 2-PMPA 30 min prior to tracer
[6] = LNCaP (PSMA+) xenograft, dissected after PET scan

SMILES: O=C(O)CC[C@H](NC(=O)N[C@@H](CCCCNC(=O)c1ccc(-c2cn(CCOCCOCC[18F])nn2)cc1)C(=O)O)C(=O)O [[^18F]PSMA‐MIC01]
- LogD, individual measurements ([1]; n-octanol/PBS pH 7.4, single measurements): -3.03 and -2.99 and -3.02 and -3.27 and -3.20 and -3.21 and -2.72 and -2.81 and -2.83
- logD ([1]; n-octanol/PBS, pH 7.4, n-octanol/PBS pH 7.4, overall mean): -3.01 ± 0.22
- ex vivo uptake bone [2, 5]: 0.3±0.1 %ID g^−1
- ex vivo uptake brain [2, 5]: 0.1±0.0 %ID g^−1
- ex vivo uptake heart [2, 5]: 0.7±0.5 %ID g^−1
- ex vivo uptake kidney [2, 5]: 28.5±20.7 %ID g^−1
- ex vivo uptake large intestine [2, 5]: 0.9±0.3 %ID g^−1
- ex vivo uptake liver [2, 5]: 5.7±1.4 %ID g^−1
- ex vivo uptake lungs [2, 5]: 1.1±0.3 %ID g^−1
- ex vivo uptake muscles [2, 5]: 0.3±0.1 %ID g^−1
- ex vivo uptake pancreas [2, 5]: 0.5±0.2 %ID g^−1
- ex vivo uptake plasma [2, 5]: 3.8±1.3 %ID g^−1
- ex vivo uptake salivary glands [2, 5]: 1.0±0.8 %ID g^−1
- ex vivo uptake small intestine [2, 5]: 1.2±1.5 %ID g^−1
- ex vivo uptake spleen [2, 5]: 1.0±0.2 %ID g^−1
- ex vivo uptake stomach [2, 5]: 7.3±16.4 %ID g^−1
- ex vivo uptake tumor [2, 5]: 2.8±0.8 %ID g^−1
- ex vivo uptake urine [2, 5]: 644±627 %ID g^−1
- ex vivo uptake whole blood [2, 5]: 1.8±0.6 %ID g^−1
- ex vivo uptake bone [2, 6]: 0.2±0.1 %ID g^−1
- ex vivo uptake brain [2, 6]: 0.1±0.0 %ID g^−1
- ex vivo uptake heart [2, 6]: 0.6±0.4 %ID g^−1
- ex vivo uptake kidney [2, 6]: 42.0±9.0 %ID g^−1
- ex vivo uptake large intestine [2, 6]: 1.4±1.5 %ID g^−1
- ex vivo uptake liver [2, 6]: 5.6±1.3 %ID g^−1
- ex vivo uptake lungs [2, 6]: 1.3±0.5 %ID g^−1
- ex vivo uptake muscles [2, 6]: 0.5±0.2 %ID g^−1
- ex vivo uptake pancreas [2, 6]: 0.8±0.7 %ID g^−1
- ex vivo uptake plasma [2, 6]: 0.9±5.2 %ID g^−1
- ex vivo uptake salivary glands [2, 6]: 0.5±0.3 %ID g^−1
- ex vivo uptake small intestine [2, 6]: 1.6±2.1 %ID g^−1
- ex vivo uptake spleen [2, 6]: 5.8±3.4 %ID g^−1
- ex vivo uptake stomach [2, 6]: 0.6±0.2 %ID g^−1
- ex vivo uptake tumor [2, 6]: 11.8±4.2 %ID g^−1 and 11.7±4.2 %ID g^−1
- ex vivo uptake urine [2, 6]: 314±420 %ID g^−1
- ex vivo uptake whole blood [2, 6]: 1.6±1.3 %ID g^−1
- SUVmeanBW Bladder [3]: 3.9 ± 0.4
- SUVmeanBW Brain [3]: 0.2 ± 0.1
- SUVmeanBW Heart [3]: 0.7 ± 0.2
- SUVmeanBW Kidney [3]: 5.1 ± 1.9
- SUVmeanBW Liver [3]: 1.5 ± 0.5
- SUVmeanBW Muscle [3]: 0.3 ± 0.1
- SUVmeanBW Tumor [3]: 0.4 ± 0.2
- metabolites in plasma [4]: no
